The subject of one assay is U-87 MG cells. In words: Cell proliferation (BrdU ELISA). As to conditions: >7 μM, every two days, 6 days of treatment. Format: cell-based, human. As for the experimental part: In vitro antitumour effects of TPGnRH and PAX-loaded TPGnRH were assessed in U-87 MG cells, UP-007, UP-029, SEBTA-023 MDA-MD-231 [triple negative (ER^−, PR—, HER2^−) breast cancer cell line] and SK-OV-3 (human ovarian carcinoma with a low expression of GnRH-R). Cells were seeded at 1,400 cells/cm^2 and allowed to attach and grow for 3 days. In experiments with TPGnRH nanofibers alone (to obtain the IC50 value in each cell line), cells were treated with medium supplemented with the peptide solutions in PBS (0.7 to 700 μM) to achieve a final concentration of 0.07 to 70 μM per well. Media was replaced by fresh media every two days for 6 days. […] On day 4, PAX-loaded TPGnRH nanofibers containing 1 nM of PAX and 7 or 35 μM of TPGnRH were added and the effect on cell viability, proliferation, cell cycle, and apoptosis was assessed on day 6. Only for the MDA-MB-231 cells, on day 4, PAX-loaded TPGnRH nanofibers containing 10 nM of PAX and 7 or 35 μM of TPGnRH were added and the effect on cell viability, proliferation, cell cycle, and apoptosis was also assessed on day 6. […] Cell metabolic activity was measured using MTT assay. […] Afterwards, dimethyl sulfoxide (100 μL) was added to the wells to dissolve the formazan crystals and the absorbance was measured at 570 and 690 nm. […] Cells were incubated with BrdU for 24 hours before the end of the pre-determined time-points. […]
For orientation: Incorporation of labelled thymidine or its analogues reports DNA synthesis.

Assay [1] relates to rat red blood cells (RBCs). The format is cell-based. The note with it: 1 hour, 37° C., read-out: IC50 of haemolysis. As for the experimental part:
Fresh blood, obtained from adult male Wistar rats (250 to 300 g) (Bioresources Unit, School of Pharmacy and Biomedical Sciences, University of Portsmouth, Portsmouth, UK) was collected in sterile lithium heparin-coated tubes (170 I.U., Vacutainer, BD Bioscience, UK) and kept on ice. To isolate the rat red blood cells (RBCs), fresh blood was centrifuged at 2,000 g using Haraeus Multifuge […] (Thermo Scientific, UK) at 4° C. for 10 minutes. The supernatant was removed, and the final volume was raised to the whole blood volume with PBS (0.01 M, pH 7.4). RBCs were centrifuged at 2,000 g for 10 minutes and washed with PBS three times. After the washing steps, two cell suspensions were prepared: 4% (w/v) RBCs in PBS and 1% (v/v) Triton X-100 (i.e. 1 g of cells in 25 mL of PBS or 1% (v/v) Triton X-100). RBCs in PBS and in Triton X-100 were used as a negative and positive control, respectively. […] After incubation, the cells were centrifuged at 1,200 g using a Haraeus Multifuge […] (Thermo Scientific, UK) during 10 minutes. The supernatant (100 μL) was transferred to a 96-well plate, and absorbance was measured at 590 nm. Percentage of haemolysis was calculated using Equation 1: [formula] Abs Negative Control represents the absorbance of the RBCs in PBS and Abs Positive Control the absorbance of the RBCs in 1% (v/v) Triton X-100. A control for Cremophor EL and ethanol mixture was also included.

For orientation: IC50 means the concentration at which inhibition is half-maximal. `CCCCCCCCCCCCCCCC(=O)Oc1ccc(C[C@H](NC(=O)[C@H](CO)NC(=O)[C@H](Cc2c[nH]c3ccccc23)NC(=O)[C@H](Cc2c[nH]cn2)NC(=O)[C@@H](N)CCC(=O)O)C(=O)NCC(=O)N[C@@H](CC(C)C)C(=O)N[C@@H](CCCNC(=N)N)C(=O)N2CCC[C@H]2C(=O)NCC(N)=O)cc1` [TPGnRH, Tyrosine (O-Palmitoyl)-Glu-GnRH]: the “effect on cell proliferation” value in the assay with U-87 MG cells was “significant reduction in cell proliferation”. The half-inhibitory concentration (IC50) in assay [1] is about 200 µM.

These data come from patent publication US20210038730A1, “PEPTIDE NANOFIBERS” (UNIVERSITY OF PORTSMOUTH HIGHER EDUCATION CORPORATION, priority 2018, published 2021).
